Measurements as given in US20260027094A1, “USE OF PYRIDONE DERIVATIVE” (GUANGZHOU JOYO PHARMATECH CO., LTD, priority 2022, published 2026).

Key:
[1] = test system: TNBS-induced SD rat models of chronic colitis with intestinal fibrosis; assay: Pharmacodynamic experiment of TNBS-induced rat models of chronic colitis with intestinal fibrosis; type: in vivo, SD rats; conditions: for AUC(0-10 d) (D 0-D 10) of DAI scores: after first TNBS induction; for AUC(0-10 d) (D 0-D 10) of DAI scores / AUC(14-24 d) (D 14-D 24) of DAI scores: mean ± SD; for AUC(14-24 d) (D 14-D 24) of DAI scores: after second TNBS induction; for CVF (%) of colon middle segment: Masson staining, model control 6.39 ± 3.16, normal 0.74 ± 0.32; for Inflammatory response (points), histopathological score of colon tissue / Tissue ulcer (points), histopathological score of colon tissue: colon middle segment, model control 2.00 ± 0.00; for HYP (μg/g) of colon middle segment: model control 2109.99 ± 385.85, normal 1141.78 ± 106.42; for Change rate of AUC(0-10 d) (%) / Change rate of AUC(14-24 d) (%): relative to model control group
Excerpt: • 1) Animals: SD rats, specific pathogen-free (SPF) grade, male, aged 7 to 8 weeks at the time of grouping, with 10 rats per group. The animals were supplied by Beijing HFK Bioscience Co., Ltd. • 2) Reagents, positive drugs, and test drugs • A. Reagents
• B. Positive Drugs: Sulfasalazine Colon-Soluble Capsules, Supplied by Guangdong Qiangji Pharmaceutical Co., Ltd. • C. Test Drug: Compound I, Supplied by Guangzhou JOYO Pharmatech Co., Ltd. • 3) Modeling method
TNBS two-enema method: After the adaptation period inspection and observation were qualified, experimental animals were screened by body weight and randomly divided into six experimental groups based on body weight. The groups included a normal control group, a model control group, a positive drug treatment group, a test compound low dose treatment group, a test compound medium dose treatment group, and a test compound high dose treatment group, with 10 rats in each group. On the day of grouping, animals in the normal control group were administered 50% ethanol solution via enema, while animals in the other groups were administered TNBS ethanol solution via enema. The dose of TNBS was 30 mg per animal, with the induction of the model performed twice at a frequency of once every two weeks. The experimental period lasted for 4 weeks, during which all animals were given normal access to water and food. • 4) Grouping and administration
The Disease Activity Index (DAI) scoring was performed on each group of experimental animals based on indicators such as animal body weight, stool morphology and characteristics, and occult blood or hematochezia. Scoring was performed after model induction, once a day for 10 consecutive days, for a total of 2 rounds.
Note: The DAI score was performed based on the percentage of body weight loss, stool morphology, and progression of blood in the stool. Statistical analysis was conducted comprehensively using these three scoring indicators. • 6) Endpoint sample collection, histopathological analysis, and hydroxyproline content analysis • A. After euthanizing the animals with pentobarbital sodium anesthesia, the colon, i.e., the segment from the end of cecum to the anus, was excised. The intestinal segment was flushed with normal saline, and the entire colon was evenly divided into upper, middle, and lower segments. The middle segment of the colon was further divided, with part of the tissue quickly frozen in liquid nitrogen and stored in a −80° C. refrigerator for measuring the total hydroxyproline levels in the middle segment samples of the colon of animals in each group. The remaining middle segment tissue was fixed in 10% formaldehyde, embedded in paraffin, and sectioned into 3 μm-thick slices. These slices were then deparaffinized in xylene, rehydrated through a graded ethanol series, subjected to H&E staining and Masson staining, dehydrated, cleared, sealed, and observed under a microscope to capture histopathological changes. Routine tissue freezing was performed. • B. Histopathological analysis
• a: Based on the Masson staining results, the area of collagen staining-positive regions and the total area of samples from the middle segment samples of the colon (submucosa and muscularis) of animals in each experimental group were statistically analyzed using Image J to calculate the collagen volume fraction (CVF %) of each sample. • C. Detection of hydroxyproline levels in the colon
The middle segment samples of the colon were processed according to the instructions, using the hydroxyproline detection kit. The total hydroxyproline levels in the middle segment samples of the colon of animals in each group were measured.

[2] = test system: carbon tetrachloride-induced SD rat models of liver fibrosis; assay: In vivo pharmacodynamic study on carbon tetrachloride-induced rat models of liver fibrosis; parameters: species or system SD rats; conditions: for Liver fibrosis score (points): Sirius Red staining, model control 4.90 ± 0.88; for Liver CVF (%): model control 8.75 ± 2.39, normal 1.24 ± 0.23; for Liver HYP content: model control 702.84 ± 173.44, normal 307.30 ± 78.13
Excerpt: • 1) Animals: SD rats, specific pathogen-free (SPF) grade, male, aged 7 to 8 weeks at the time of grouping, with 10 mice per group. The animals were supplied by Beijing HFK Bioscience Co., Ltd. • 2) Reagents, positive drugs, and test drugs • A. Reagents
• B. Positive Drug: Pirfenidone, Supplied by Biochempartner. • C. Test Drug: compound I, supplied by Guangzhou JOYO Pharmatech Co., Ltd. • 3) Modeling method
Intraperitoneal injection method of carbon tetrachloride: After the adaptation period inspection and observation were qualified, experimental animals were screened by body weight and randomly divided into a normal control group and a model induction group. Starting on the first day of grouping, animals in the model induction group were intraperitoneally injected with a 20% carbon tetrachloride solution dissolved in corn oil, at a modeling frequency of twice a week for six consecutive weeks. After two weeks of carbon tetrachloride induction, animals in the model induction group were randomly subdivided a second time into 5 experimental groups based on their alanine transaminase (ALT) levels (with body weight used as a calibration factor), including the model control group, positive drug treatment group, test compound low dose treatment group, test compound medium dose treatment group, and test compound high dose treatment group. Animals in the normal control group were administered the corresponding vehicle. The experimental period lasted for 6 weeks, during which all animals were given normal access to water and food. • 4) Grouping and administration info
• a: The test compound vehicle was an aqueous solution of 0.5% (w/v) methylcellulose and 0.2% (v/v) Tween 80. • b: An aqueous solution of 0.5% (w/v) methylcellulose and 0.2% (v/v) Tween 80 was used as the vehicle and prepared to the required concentration. • 5) Endpoint sample collection, histopathological analysis, and hydroxyproline content analysis. • A. After euthanizing the animals with pentobarbital sodium anesthesia, the liver was excised and rinsed with normal saline. The liver was divided into three segments: the large lobe, the left lobe, and the right-middle lobe. The large lobe tissue was quickly frozen in liquid nitrogen and stored in a −80° C. refrigerator for measuring the total hydroxyproline levels of animal liver samples in each group. The tissues of left lobe and right-middle lobe of liver were fixed in 10% formaldehyde, embedded in paraffin, and sectioned into 3 μm-thick slices. These slices were then deparaffinized in xylene, rehydrated through a graded ethanol series, subjected to Sirius Red staining, dehydrated, cleared, sealed, and observed under a microscope to capture histopathological changes. Routine tissue freezing was performed. • B. Analysis of fibrosis levels in liver tissue sections;
Based on Sirius Red staining results of liver sections, 1) fibrosis staging was scored according to the scoring criteria listed in Table 3; 2) using Image J, the liver fibrotic area and the total sample area of animals in each experimental group were counted to calculate the collagen volume fraction (CVF %) for each sample. • C. Detection of hydroxyproline levels in liver
The liver large lobe samples were processed according to the instructions using the hydroxyproline detection kit. The total hydroxyproline levels in the liver samples of animals in each group were detected.

[3] = sulfasalazine 50 mg/kg oral gavage twice a day
[4] = sulfasalazine 50 mg/kg twice a day
[5] = sulfasalazine 50 mg/kg twice a day for 4 weeks
[6] = Compound I high dose 30 mg/kg twice a day for 4 weeks
[7] = Compound I low dose 3 mg/kg twice a day for 4 weeks
[8] = Compound I medium dose 10 mg/kg twice a day for 4 weeks
[9] = Compound I high dose 15 mg/kg oral gavage twice a day
[10] = Compound I high dose 15 mg/kg twice a day for 4 weeks
[11] = Compound I high dose 15 mg/kg twice a day
[12] = Compound I low dose 3 mg/kg oral gavage twice a day
[13] = Compound I low dose 3 mg/kg twice a day
[14] = Compound I medium dose 6 mg/kg oral gavage twice a day
[15] = Compound I medium dose 6 mg/kg twice a day for 4 weeks
[16] = Compound I medium dose 6 mg/kg twice a day
[17] = pirfenidone 150 mg/kg twice a day for 4 weeks

O=C(O)c1cc(/N=N/c2ccc(S(=O)(=O)Nc3ccccn3)cc2)ccc1O [Sulfasalazine, reference compound]
AUC(0-10 d) (D 0-D 10) of DAI scores [1, 3]: 29.80 ± 2.79
AUC(14-24 d) (D 14-D 24) of DAI scores [1, 3]: 11.70 ± 1.69
Proliferation of connective tissue and fibrosis process in submucosa and muscularis of the colon [1, 4]: significant improvements and healing
CVF (%) of colon middle segment [1, 5]: 2.67 ± 1.06 %
Inflammatory response (points), histopathological score of colon tissue [1, 5]: 0.60 ± 0.52 points
Tissue ulcer (points), histopathological score of colon tissue [1, 5]: 0.50 ± 0.53 points
HYP (μg/g) of colon middle segment [1, 5]: 1299.79 ± 161.27 µg/g
Change rate of AUC(0-10 d) (%) [1, 4]: −34.86%
Change rate of AUC(14-24 d) (%) [1, 4]: −51.35%

CC1(c2ccc(=O)n(-c3ccsc3)c2)COC1 [Compound I]
Efficacy evaluation result (conclusion) ([2]; Compound I 3.0, 10.0 and 30.0 mg/kg twice a day, 4 weeks): significant therapeutic effect
Liver fibrosis score (points) ([2]; Compound I high dose 30 mg/kg oral gavage twice a day for 4 weeks): 4.20 ± 0.92 points
Liver CVF (%) [2, 6]: 5.60 ± 1.92 %
Liver HYP content [2, 6]: 607.79 ± 112.74 µg/g
Liver fibrosis score (points) ([2]; Compound I low dose 3 mg/kg oral gavage twice a day for 4 weeks): 4.40 ± 0.70 points
Liver CVF (%) [2, 7]: 5.02 ± 1.42 %
Liver HYP content [2, 7]: 716.17 ± 105.01 µg/g
Pseudolobular structure of the liver under light microscope ([2]; Compound I medium and high dose treatment groups (10, 30 mg/kg twice a day), some animals, Sirius Red): tended to disintegrate
Liver fibrosis score (points) ([2]; Compound I medium dose 10 mg/kg oral gavage twice a day for 4 weeks): 4.00 ± 0.94 points
Liver CVF (%) [2, 8]: 4.87 ± 1.68 %
Liver HYP content [2, 8]: 560.60 ± 114.04 µg/g
Hepatocyte fat degeneration and swelling degeneration in the central vein area of the liver ([2]; each Compound I treatment group vs model control, medium and high dose most obvious): reduced to some extent
Efficacy evaluation result (conclusion) ([1]; Compound I 3.0, 6.0 and 15.0 mg/kg twice a day, 4 weeks): significant therapeutic effect
AUC(0-10 d) (D 0-D 10) of DAI scores [1, 9]: 33.50 ± 3.97
AUC(14-24 d) (D 14-D 24) of DAI scores [1, 9]: 15.40 ± 3.50
CVF (%) of colon middle segment [1, 10]: 2.37 ± 1.33 %
Inflammatory response (points), histopathological score of colon tissue [1, 10]: 0.80 ± 0.79 points
Tissue ulcer (points), histopathological score of colon tissue [1, 10]: 0.70 ± 0.67 points
HYP (μg/g) of colon middle segment [1, 10]: 1270.56 ± 287.01 µg/g
Change rate of AUC(0-10 d) (%) [1, 11]: −26.78%
Change rate of AUC(14-24 d) (%) [1, 11]: −35.97%
AUC(0-10 d) (D 0-D 10) of DAI scores [1, 12]: 37.15 ± 4.93
AUC(14-24 d) (D 14-D 24) of DAI scores [1, 12]: 19.30 ± 2.79
CVF (%) of colon middle segment [1, 7]: 2.97 ± 1.78 %
Inflammatory response (points), histopathological score of colon tissue [1, 7]: 1.00 ± 0.67 points
Tissue ulcer (points), histopathological score of colon tissue [1, 7]: 0.80 ± 0.63 points
HYP (μg/g) of colon middle segment [1, 7]: 1333.43 ± 155.33 µg/g
Change rate of AUC(0-10 d) (%) [1, 13]: −18.80%
Change rate of AUC(14-24 d) (%) [1, 13]: −19.75%
AUC(0-10 d) (D 0-D 10) of DAI scores [1, 14]: 36.05 ± 4.87
AUC(14-24 d) (D 14-D 24) of DAI scores [1, 14]: 17.25 ± 3.16
CVF (%) of colon middle segment [1, 15]: 2.36 ± 1.47 %
Inflammatory response (points), histopathological score of colon tissue [1, 15]: 0.70 ± 0.67 points
Tissue ulcer (points), histopathological score of colon tissue [1, 15]: 0.70 ± 0.67 points
HYP (μg/g) of colon middle segment [1, 15]: 1228.40 ± 235.44^####+ μg/g
Change rate of AUC(0-10 d) (%) [1, 16]: −21.20%
Change rate of AUC(14-24 d) (%) [1, 16]: −28.27%
Colon tissue healing and degree of fibrosis (histopathology) ([1]; all Compound I treatment groups (3, 6, 15 mg/kg twice a day)): tissue healing and a reduction in the degree of fibrosis were observed
Effective dose (colon fibrosis, HYP level improvement) ([1]; oral gavage twice a day, certain dose-dependent relationship): 3.0 mg/kg
Effective low dose (DAI AUC(0-10 d) improvement) ([1]; oral gavage twice a day, chronic colitis disease process): 3.0 mg/kg

Cc1ccc(=O)n(-c2ccccc2)c1 [Pirfenidone, reference compound]
Liver fibrosis score (points) ([2]; pirfenidone 150 mg/kg oral gavage twice a day for 4 weeks): 5.40 ± 0.52 points
Liver CVF (%) [2, 17]: 6.58 ± 2.20 %
Liver HYP content [2, 17]: 611.19 ± 183.66 µg/g
Liver histopathological improvement under light microscope ([2]; pirfenidone 150 mg/kg twice a day, Sirius Red): no significant improvement
